The test system of assay [1] is MOLM-13 cells. The assay can be described thus: MOLM-13 cell viability (Assay B), Cell Titer-Glo. As to conditions: Homo sapiens, read-out: IC50 MOLM13 inhibition activity. The assay is classed as cell-based. The protocol:
MOLM-13 cells (an acute myeloid leukemia cell line) were plated in RPMI supplied with 10% FBS and 1% Pen/Strep in 384-well plates at 1,000 cells per well on day 0. On day 1, treatment of the cells with compound (concentration range 10E-5 and 6E-12 M) was initiated in the presence or absence of 100 μM uridine. After 72 hours incubation of the cells with or without test compound, the number of viable cells per well was assessed by Cell Titer-Glo Luminescent Cell Viability Assay (Promega, Madison, WI, USA). […] Each condition was tested in duplicate and the potency of test compounds was determined from two independent experiments.
(In general: In ATP-based viability assays light output follows the ATP content of the culture.)

Assay [2] addresses recombinant human DHODH (Homo sapiens (Human), UniProt Q02127). As to the kind of experiment: DHODH enzyme assay (Assay A), DCIP absorbance. The assay is classed as biochemical. Here is the method:
Inhibition of human dihydroorotate dehydrogenase (DHODH) by example compounds as described herein was determined using one of two assays as described below.
DHODH enzyme assays were performed with 6 nM recombinant human DHODH (purified essentially as described by Walse et al., Biochemistry, 47, 8929-8936 (2008)). The reaction mixture consisted of 1 mM DL-dihydroorotic acid (#D7003, Sigma-Aldrich), 100 μM 3,4-dimethoxy-5-methyl-p-benzoquinone (#D9150, Sigma-Aldrich), and 100 μM 2,6-dichlorophenolindophenol sodium salt (DCIP) (#D1878, Sigma-Aldrich) in enzyme buffer (50 mM Tris-HCl pH 8.0, 0.1% Triton X-100, 150 mM KCl). A stock solution of 20 mM DCIP was prepared in enzyme buffer and filtered through Whatman paper just before use. Reactions were performed in a total volume of 100 μL, consisting of 1 μL of compound, 49 μL of enzyme and 50 μL of reaction mixture. Loss in absorbance by chromogen DCIP was measured at 595 nm following a 70 minute incubation at 32° C.

[3] abbreviates: MOLM-13, 72 hours, bins ≥10 nM-<100 nM and <10 nM.
Setting [4] is: bin ≥1 μM-<10 μM, read-out: IC50 DHODH inhibition activity.
Where [5] appears, read: bins ≥10 nM-<100 nM and <10 nM, read-out: IC50 DHODH inhibition activity.

By IC50 is commonly meant the midpoint of a concentration-inhibition curve.

Read-outs that look alike come from different tables or passages of the source.

recombinant human DHODH, sequence (Q02127 whole entry): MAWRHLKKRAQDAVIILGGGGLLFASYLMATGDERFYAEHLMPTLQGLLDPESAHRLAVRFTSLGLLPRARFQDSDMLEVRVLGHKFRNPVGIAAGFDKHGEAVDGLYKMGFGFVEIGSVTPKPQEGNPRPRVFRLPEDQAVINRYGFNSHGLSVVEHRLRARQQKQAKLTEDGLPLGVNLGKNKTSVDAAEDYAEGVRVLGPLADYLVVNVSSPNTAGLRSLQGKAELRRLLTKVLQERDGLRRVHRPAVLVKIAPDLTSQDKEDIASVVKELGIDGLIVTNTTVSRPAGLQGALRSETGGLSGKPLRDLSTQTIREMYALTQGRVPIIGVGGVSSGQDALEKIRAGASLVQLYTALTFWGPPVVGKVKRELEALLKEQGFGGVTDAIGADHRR

As to `COc1cccc(-n2ncc3c2COC[C@H]3NC(=O)c2cc(C)c(C)cn2)c1Cl`, the IC50 in assay [1] (setting [3]) fell in the range of 10 to 100 nM.
As for `O=C(N[C@H]1COCc2c1cnn2-c1ccccc1F)c1ncn2c1CCCC2` (single isomer, unassigned) [Ex-2], in assay [2] (setting [4]), the IC50 is 1000 to 10000 nM.
Same read-out and setting: with `O=C(N[C@H]1COCc2c1cnn2-c1ccccc1F)c1ncc2n1CCCC2` (single isomer, unassigned) [Ex-5] the figure was 1000 to 10000 nM.
With `O=C(N[C@H]1COCc2c1cnn2-c1c(Cl)cccc1Cl)c1ncn2c1CCCC2` (single isomer, unassigned) [Ex-12], the IC50 in assay [1] (setting [3]) is 10 to 100 nM.
As to `Cc1cccc(-n2ncc3c2COC[C@H]3NC(=O)c2ncn3c2CCCC3)c1Cl` [Ex-14, (S)—N-(1-(2-chloro-3-methylphenyl)-1,4,5,7-tetrahydropyrano[3,4-c]pyrazol-4-yl)-5,6,7,8-tetrahydroimidazo[1,5-a]pyridine-1-carboxamide], the half-inhibitory concentration (IC50) is under 10 nM in assay [1] (MOLM-13, 72 h) and under 10 nM in assay [2] (setting [5]).
On to `CCc1c(C(=O)N[C@@H]2COCc3c2cnn3-c2cccc(C)c2Cl)ncn1C` [Ex-15, (S)—N-(1-(2-chloro-3-methylphenyl)-1,4,5,7-tetrahydropyrano[3,4-c]pyrazol-4-yl)-5-ethyl-1-methyl-1H-imidazole-4-carboxamide], for which the IC50 in assay [1] (setting [3]) and in assay [2] (setting [5]) was under 10 nM in each case.
On to `Cc1cccc(-n2ncc3c2COC[C@H]3NC(=O)c2ncc3n2CCCC3)c1Cl` [Ex-16, (S)—N-(1-(2-chloro-3-methylphenyl)-1,4,5,7-tetrahydropyrano[3,4-c]pyrazol-4-yl)-5,6,7,8-tetrahydroimidazo[1,5-a]pyridine-3-carboxamide], for which the concentration for half-maximal inhibition (IC50) in assay [1] (setting [3]) and in assay [2] (setting [5]) was under 10 nM throughout.
In the case of `Cc1cccc(-n2ncc3c2COC[C@H]3NC(=O)c2n[nH]c3c2CCCC3)c1Cl` [Ex-17, (S)—N-(1-(2-chloro-3-methylphenyl)-1,4,5,7-tetrahydropyrano[3,4-c]pyrazol-4-yl)-4,5,6,7-tetrahydro-1H-indazole-3-carboxamide], the IC50 in assay [1] (setting [3]) and in assay [2] (setting [5]) was 10 to 100 nM each time.
`Cc1cccc(-n2ncc3c2COC[C@H]3NC(=O)c2noc3c2CCCC3)c1Cl` [Ex-18, (S)—N-(1-(2-chloro-3-methylphenyl)-1,4,5,7-tetrahydropyrano[3,4-c]pyrazol-4-yl)-4,5,6,7-tetrahydrobenzo[d]isoxazole-3-carboxamide]: the IC50 in assay [1] (setting [3]) and in assay [2] (setting [5]) was under 10 nM each time.
For `CCc1c(C(=O)N[C@@H]2COCc3c2cnn3-c2cccc(C)c2Cl)n[nH]c1C` [Ex-19, (S)—N-(1-(2-chloro-3-methylphenyl)-1,4,5,7-tetrahydropyrano[3,4-c]pyrazol-4-yl)-4-ethyl-5-methyl-1H-pyrazole-3-carboxamide], the IC50 in assay [1] (setting [3]) and in assay [2] (setting [5]) was 10 to 100 nM in each case.
In the case of `COc1cccc(-n2ncc3c2COC[C@H]3NC(=O)c2ncn3c2CCCC3)c1Cl` [Ex-21, (S)—N-(1-(2-chloro-3-methoxyphenyl)-1,4,5,7-tetrahydropyrano[3,4-c]pyrazol-4-yl)-5,6,7,8-tetrahydroimidazo[1,5-a]pyridine-1-carboxamide], the IC50 in assay [1] (MOLM-13, 72 h) was under 10 nM; in assay [2] (setting [5]), under 10 nM.
For the compound `CCc1c(C(=O)N[C@@H]2COCc3c2cnn3-c2cccc(OC)c2Cl)ncn1C` [Ex-22, (S)—N-(1-(2-chloro-3-methoxyphenyl)-1,4,5,7-tetrahydropyrano[3,4-c]pyrazol-4-yl)-5-ethyl-1-methyl-1H-imidazole-4-carboxamide], the IC50 in assay [1] (setting [3]) and in assay [2] (setting [5]) was under 10 nM throughout.
As to `COc1cccc(-n2ncc3c2COC[C@H]3NC(=O)c2n[nH]c3c2CCCC3)c1Cl` [Ex-24, (S)—N-(1-(2-chloro-3-methoxyphenyl)-1,4,5,7-tetrahydropyrano[3,4-c]pyrazol-4-yl)-4,5,6,7-tetrahydro-1H-indazole-3-carboxamide], the IC50 is under 10 nM in assay [1] (setting [3]) and 10 to 100 nM in assay [2] (setting [5]).
`COc1cccc(-n2ncc3c2COC[C@H]3NC(=O)c2noc3c2CCCC3)c1Cl` [Ex-25, (S)—N-(1-(2-chloro-3-methoxyphenyl)-1,4,5,7-tetrahydropyrano[3,4-c]pyrazol-4-yl)-4,5,6,7-tetrahydrobenzo[d]isoxazole-3-carboxamide]: the IC50 in assay [1] (setting [3]) is under 10 nM; in assay [2] (setting [5]) it was 10 to 100 nM.
Regarding `CCc1c(C(=O)N[C@@H]2COCc3c2cnn3-c2cccc(OC)c2Cl)n[nH]c1C` [Ex-26, (S)—N-(1-(2-chloro-3-methoxyphenyl)-1,4,5,7-tetrahydropyrano[3,4-c]pyrazol-4-yl)-4-ethyl-5-methyl-1H-pyrazole-3-carboxamide], the IC50 in assay [1] (setting [3]) and in assay [2] (setting [5]) was under 10 nM each time.
Consider `CCc1c(C(=O)N[C@@H]2COCc3c2cnn3-c2c(F)ccc(OC)c2Cl)ncn1C` [Ex-28, (S)—N-(1-(2-chloro-6-fluoro-3-methoxyphenyl)-1,4,5,7-tetrahydropyrano[3,4-c]pyrazol-4-yl)-5-ethyl-1-methyl-1H-imidazole-4-carboxamide], for which the IC50 in assay [1] (setting [3]) and in assay [2] (setting [5]) was under 10 nM each time.
`COc1ccc(F)c(-n2ncc3c2COC[C@H]3NC(=O)c2ncc3n2CCCC3)c1Cl` [Ex-29, (S)—N-(1-(2-chloro-6-fluoro-3-methoxyphenyl)-1,4,5,7-tetrahydropyrano[3,4-c]pyrazol-4-yl)-5,6,7,8-tetrahydroimidazo[1,5-a]pyridine-3-carboxamide]: the concentration for half-maximal inhibition (IC50) in assay [1] (setting [3]) and in assay [2] (setting [5]) was under 10 nM each time.
For the compound `COc1ccc(F)c(-n2ncc3c2COC[C@H]3NC(=O)c2n[nH]c3c2CCCC3)c1Cl` [Ex-30, (S)—N-(1-(2-chloro-6-fluoro-3-methoxyphenyl)-1,4,5,7-tetrahydropyrano[3,4-c]pyrazol-4-yl)-4,5,6,7-tetrahydro-1H-indazole-3-carboxamide], the IC50 is under 10 nM in assay [1] (setting [3]) and 10 to 100 nM in assay [2] (setting [5]).
As for `COc1ccc(F)c(-n2ncc3c2COC[C@H]3NC(=O)c2noc3c2CCCC3)c1Cl` [Ex-31, (S)—N-(1-(2-chloro-6-fluoro-3-methoxyphenyl)-1,4,5,7-tetrahydropyrano[3,4-c]pyrazol-4-yl)-4,5,6,7-tetrahydrobenzo[d]isoxazole-3-carboxamide], the IC50 was under 10 nM in assay [1] (MOLM-13, 72 h) and under 10 nM in assay [2] (read-out: IC50 DHODH inhibition activity).
Take `CCc1c(C(=O)N[C@@H]2COCc3c2cnn3-c2c(F)ccc(OC)c2Cl)n[nH]c1C` [Ex-32, (S)—N-(1-(2-chloro-6-fluoro-3-methoxyphenyl)-1,4,5,7-tetrahydropyrano[3,4-c]pyrazol-4-yl)-4-ethyl-5-methyl-1H-pyrazole-3-carboxamide]: the half-inhibitory concentration (IC50) in assay [1] (MOLM-13, 72 h) is under 10 nM; in assay [2] (setting [5]), 10 to 100 nM.
For `Cc1cnc(C(=O)N[C@@H]2COCc3c2cnn3-c2c(C)cccc2Cl)cc1C` [Ex-40, (S)—N-(1-(2-chloro-6-methylphenyl)-1,4,5,7-tetrahydropyrano[3,4-c]pyrazol-4-yl)-4,5-dimethylpicolinamide], the IC50 in assay [1] (setting [3]) is 10 to 100 nM.
`CS(=O)(=O)c1cccc(-n2ncc3c2COC[C@H]3NC(=O)c2ncn3c2CCCC3)c1` [Ex-49, (S)—N-(1-(3-(methylsulfonyl)phenyl)-1,4,5,7-tetrahydropyrano[3,4-c]pyrazol-4-yl)-5,6,7,8-tetrahydroimidazo[1,5-a]pyridine-1-carboxamide]: in assay [2] (setting [4]), the IC50 lay in the range of 1000 to 10000 nM.
Consider `CN(C)CCOc1cccc(-n2ncc3c2COC[C@H]3NC(=O)c2ncn3c2CCCC3)c1Cl` [Ex-63, (S)—N-(1-(2-chloro-3-(2-(dimethylamino)ethoxy)phenyl)-1,4,5,7-tetrahydropyrano[3,4-c]pyrazol-4-yl)-5,6,7,8-tetrahydroimidazo[1,5-a]pyridine-1-carboxamide], for which the IC50 in assay [2] lay within 10 to 100 nM.
Still for that read-out and setting: with `CNC(=O)COc1cccc(-n2ncc3c2COC[C@H]3NC(=O)c2ncn3c2CCCC3)c1Cl` [Ex-65, (S)—N-(1-(2-chloro-3-(2-(methylamino)-2-oxoethoxy)phenyl)-1,4,5,7-tetrahydropyrano[3,4-c]pyrazol-4-yl)-5,6,7,8-tetrahydroimidazo[1,5-a]pyridine-1-carboxamide] the figure was 10 to 100 nM; with `CC(=O)NCCOc1cccc(-n2ncc3c2COC[C@H]3NC(=O)c2ncn3c2CCCC3)c1Cl` [Ex-66, (S)—N-(1-(3-(2-acetamidoethoxy)-2-chlorophenyl)-1,4,5,7-tetrahydropyrano[3,4-c]pyrazol-4-yl)-5,6,7,8-tetrahydroimidazo[1,5-a]pyridine-1-carboxamide], 10 to 100 nM.
As for `CN(C)C(=O)c1cccc(-n2ncc3c2COC[C@H]3NC(=O)c2ncn3c2CCCC3)c1Cl` [Ex-70, (S)—N-(1-(2-chloro-3-(dimethylcarbamoyl)phenyl)-1,4,5,7-tetrahydropyrano[3,4-c]pyrazol-4-yl)-5,6,7,8-tetrahydroimidazo[1,5-a]pyridine-1-carboxamide], the concentration for half-maximal inhibition (IC50) in assay [1] (MOLM-13, 72 h) lay within 10 to 100 nM.

The values above are taken from patent US20250388602A1 (Genase Therapeutics B.V., priority 2022, published 2025).
